The record followed here is US8426437B2, “Pyrroloquinoline derivatives and their use as protein kinases inhibitors” (Pierre Fabre Medicament, priority 2005, dated 2013).

Counter-ions that a name gives are not always drawn. Where only a bound is given, the exact number is not on record here.

T1 sequence (P07949 29-1114): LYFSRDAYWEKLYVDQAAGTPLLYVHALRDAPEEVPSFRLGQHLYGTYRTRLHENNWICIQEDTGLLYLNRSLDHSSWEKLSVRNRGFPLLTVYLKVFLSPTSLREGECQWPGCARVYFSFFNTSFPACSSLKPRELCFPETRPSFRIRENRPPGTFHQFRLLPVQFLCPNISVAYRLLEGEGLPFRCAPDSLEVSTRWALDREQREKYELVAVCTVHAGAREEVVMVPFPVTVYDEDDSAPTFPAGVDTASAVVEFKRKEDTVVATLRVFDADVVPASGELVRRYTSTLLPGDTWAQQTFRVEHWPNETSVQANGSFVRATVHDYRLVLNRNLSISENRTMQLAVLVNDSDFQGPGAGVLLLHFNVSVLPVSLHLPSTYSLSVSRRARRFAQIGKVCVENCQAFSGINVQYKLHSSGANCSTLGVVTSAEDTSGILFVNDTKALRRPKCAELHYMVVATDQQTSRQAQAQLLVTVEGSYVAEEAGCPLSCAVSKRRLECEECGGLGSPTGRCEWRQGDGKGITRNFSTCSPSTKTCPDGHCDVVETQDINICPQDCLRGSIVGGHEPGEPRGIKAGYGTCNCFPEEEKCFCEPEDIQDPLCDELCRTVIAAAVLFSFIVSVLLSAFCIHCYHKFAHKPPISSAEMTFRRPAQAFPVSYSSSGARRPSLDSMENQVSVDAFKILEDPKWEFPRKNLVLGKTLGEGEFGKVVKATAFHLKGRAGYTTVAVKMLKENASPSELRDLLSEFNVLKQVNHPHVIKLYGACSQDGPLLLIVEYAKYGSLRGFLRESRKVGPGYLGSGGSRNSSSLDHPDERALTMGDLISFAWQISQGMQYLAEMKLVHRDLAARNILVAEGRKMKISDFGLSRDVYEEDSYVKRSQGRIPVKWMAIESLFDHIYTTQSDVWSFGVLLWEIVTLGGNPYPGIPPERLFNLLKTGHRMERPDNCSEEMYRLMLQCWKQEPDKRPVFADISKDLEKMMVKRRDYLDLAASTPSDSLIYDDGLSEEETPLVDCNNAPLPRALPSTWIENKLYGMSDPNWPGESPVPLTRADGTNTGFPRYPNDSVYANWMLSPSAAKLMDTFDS

The test addresses T1, RET (Homo sapiens, UniProt P07949).
T1 construct: purchased Upstate 14-570MG
The experiment in a line: Inhibition of RET kinase activity, recombinant RET method (Kinase-Glo). It counts as biochemical. To be noted: RET 2 μg/ml, poly-EY4 substrate, 20 μM ATP, two hours at 30° C. In short, it runs like this:
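Recombinant RET at 2 μg/ml in 20 mM MOPS/NaOH pH 7.0, 1 mM EDTA, 5% glycerol, 0.01% Brij35, 0.1% 2-mercaptoethanol, 1 mg/ml BSA; compounds 10 nM–30 μM final.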
As for `O=C(NCc1ccccc1)c1c[nH]c2c(=O)[nH]c3ccccc3c12` [Compound 83, N-(Benzyl)-4-oxo-4,5-dihydro-3H-pyrrolo[2,3-c]quinoline-1-carboxamide], the IC50 lay in the range of 10000 to 100000 nM. Regarding `CCOC(=O)c1c[nH]c2c(=O)[nH]c3ccc(-c4cccnc4)cc3c12` [Compound 258, 4-Oxo-8-pyridin-3-yl-4,5-dihydro-3H-pyrrolo[2,3-c]quinoline-1-ethyl carboxylate], the IC50 was 1000 to 10000 nM. With `CCCOC(=O)c1c[nH]c2c(=O)[nH]c3ccc(S(=O)(=O)N4CC[C@H](N(C)C)C4)cc3c12` [Compound 171], the IC50 is 100 to 1000 nM.

With `CCCOC(=O)c1c[nH]c2c(=O)[nH]c3ccc(S(=O)(=O)N4CCC(NC)C4)cc3c12` (stereo not shown) [Compound 168, 8-(3-Methylamino-pyrrolidine-1-sulfonyl)-4-oxo-4,5-dihydro-3H-pyrrolo[2,3-c]quinoline-1-propyl carboxylate hydrochloride], the IC50 lay within 100 to 1000 nM. Next, `CCOC(=O)c1c[nH]c2c(=O)[nH]c3ccc(S(=O)(=O)Nc4cccc(C)c4)cc3c12` [Compound 5, 4-Oxo-8-m-tolylsulfamoyl-4,5-dihydro-3H-pyrrolo[2,3-c]quinoline-1-ethyl carboxylate]: 100 to 1000 nM; `CCOC(=O)c1c[nH]c2c(=O)[nH]c3ccc(S(N)(=O)=O)cc3c12` [Compound 96, 4-Oxo-8-sulfamoyl-4,5-dihydro-3H-pyrrolo[2,3-c]quinoline-1-ethyl carboxylate]: 100 to 1000 nM; `CCCOC(=O)c1c[nH]c2c(=O)[nH]c3ccc(S(=O)(=O)N(C[C@H](C)NC(=O)OC(C)(C)C)C4CC4)cc3c12` [Compound 152, (S)-8-[(2-tert-Butoxycarbonylamino-propyl)-cyclopropyl-sulfamoyl]-4-oxo-4,5-dihydro-3H-pyrrolo[2,3-c]quinoline 1-propyl carboxylate]: 100 to 1000 nM. Next, `CCOC(=O)c1c[nH]c2c(=O)[nH]c3ccc(S(=O)(=O)Nc4cc(F)cc(F)c4)cc3c12` [Compound 19, 8-(3,5-Difluorophenylsulfamoyl)-4-oxo-4,5-dihydro-3H-pyrrolo[2,3-c]quinoline-1-ethyl carboxylate]: 100 to 1000 nM. Turning to `CCCOC(=O)c1c[nH]c2c(=O)[nH]c3cc(Cl)c(S(=O)(=O)N(C)C)cc3c12` [Compound 189, 7-Chloro-8-dimethylsulfamoyl-4-oxo-4,5-dihydro-3H-pyrrolo[2,3-c]quinoline-1-propyl carboxylate], the IC50 was 100 to 1000 nM.

Take `CCOC(=O)c1c[nH]c2c(=O)[nH]c3ccc(C#CCN(C)CCC#N)cc3c12` [Compound 206, 8-{3-[(2-Cyano-ethylmethyl-amino]-prop-1-ynyl}-4-oxo-4,5-dihydro-3H-pyrrolo[2,3-c]quinoline-1-ethyl carboxylate]: the IC50 lay in the range of 100 to 1000 nM. With `C#CCN(C)S(=O)(=O)c1ccc2[nH]c(=O)c3[nH]cc(C(=O)OCCC)c3c2c1` [Compound 134, 8-(Methyl-prop-2-ynyl-sulfamoyl)-4-oxo-4,5-dihydro-3H-pyrrolo[2,3-c]quinoline-1-propyl carboxylate] the figure was 100 to 1000 nM; with `CCOC(=O)c1c[nH]c2c(=O)[nH]c3ccc(-c4ccc(OC)nc4)cc3c12` [Compound 260, 8-(6-Methoxy-pyridin-3-yl)-4-oxo-4,5-dihydro-3H-pyrrolo[2,3-c]quinoline-1-ethyl carboxylate], 1000 to 10000 nM. Consider `CCCOC(=O)c1c[nH]c2c(=O)[nH]c3ccc(S(=O)(=O)N4CC[C@@H](N(C)C)C4)cc3c12` [Compound 172], for which the IC50 lay in the range of 1000 to 10000 nM. With `CCOC(=O)c1c[nH]c2c(=O)[nH]c3ccc(C#CCN4CCOCC4)cc3c12` [Compound 205, 8-(3-Morpholin-4-yl-prop-1-ynyl)-4-oxo-4,5-dihydro-3H-pyrrolo[2,3-c]quinoline-1-ethyl carboxylate], the IC50 was in the range of 100 to 1000 nM. With `CCOC(=O)c1c[nH]c2c(=O)[nH]c3ccc(Sc4cccc(NC(C)=O)c4)cc3c12` [Compound 225, 8-(3-Acetylaminophenylsulfanyl)-4-oxo-4,5-dihydro-3H-pyrrolo[2,3-c]quinoline-1-ethyl carboxylate], the IC50 was 100 to 1000 nM. As for `C#Cc1ccc2[nH]c(=O)c3[nH]cc(C(=O)OCC)c3c2c1` [Compound 199, 8-Ethynyl-4-oxo-4,5-dihydro-3H-pyrrolo[2,3-c]quinoline-1-ethyl carboxylate], the IC50 lay in the range of 1000 to 10000 nM. Next, `CCCOC(=O)c1c[nH]c2c(=O)[nH]c3ccc(S(=O)(=O)N(Cc4c[nH]cn4)C4CC4)cc3c12` [Compound 143, 8-[Cyclopropyl-(1H-imidazol-4-ylmethyl)-sulfamoyl]-4-oxo-4,5-dihydro-3H-pyrrolo[2,3-c]quinoline-1-propyl carboxylate hydrochloride]: 100 to 1000 nM.

For the compound `CCOC(=O)c1c[nH]c2c(=O)[nH]c3ccc([S+]([O-])Cc4ccccc4)cc3c12` (stereo not shown) [Compound 198, 4-Oxo-8-phenylmethanesulfinyl-4,5-dihydro-3H-pyrrolo[2,3-c]quinoline-1-ethyl carboxylate], the IC50 fell in the range of 100 to 1000 nM. With `CCOC(=O)c1c[nH]c2c(=O)[nH]c3cc(Cl)ccc3c12` [Compound 216, 7-Chloro-4-oxo-4,5-dihydro-3H-pyrrolo[2,3-c]quinoline-1-ethyl carboxylate] the figure was 1000 to 10000 nM; with `CN(c1ccc(F)cc1)S(=O)(=O)c1ccc2[nH]c(=O)c3[nH]cc(C(=O)OCCCNC(=O)OC(C)(C)C)c3c2c1` [Compound 108, 3-tert-Butoxycarbonylamino-propyl 8-[(4-fluorophenyl)-methyl-sulfamoyl]-4-oxo-4,5-dihydro-3H-pyrrolo[2,3-c]quinoline-1-carboxylate], 10000 to 100000 nM; with `CCOC(=O)c1c[nH]c2c(=O)[nH]c3ccc(NS(=O)(=O)c4ccc([N+](=O)[O-])cc4)cc3c12` [Compound 53, 8-(4-Nitro-benzenesulfonylamino)-4-oxo-4,5-dihydro-3H-pyrrolo[2,3-c]quinoline-1-ethyl carboxylate], 100 to 1000 nM. Next, `CCOC(=O)c1c[nH]c2c(=O)[nH]c3ccc(Sc4ccccc4)cc3c12` [Compound 220, 4-Oxo-8-phenylsulfanyl-4,5-dihydro-3H-pyrrolo[2,3-c]quinoline-1-ethyl carboxylate]: 100 to 1000 nM; `CCOC(=O)c1c[nH]c2c(=O)[nH]c3ccc(S(=O)(=O)Nc4ccccc4C)cc3c12` [Compound 4, 4-Oxo-8-o-tolylsulfamoyl-4,5-dihydro-3H-pyrrolo[2,3-c]quinoline-1-ethyl carboxylate]: less than 100 nM; `CCOC(=O)c1c[nH]c2c(=O)[nH]c3ccc(S(=O)(=O)N(C)CCc4ccccc4)cc3c12` [Compound 25, 8-(Methyl-phenethyl-sulfamoyl)-4-oxo-4,5-dihydro-3H-pyrrolo[2,3-c]quinoline-1-ethyl carboxylate]: 1000 to 10000 nM.

Consider `CCOC(=O)c1c[nH]c2c(=O)[nH]c3ccc(N(C)S(C)(=O)=O)cc3c12` [Compound 59, 8-(Methanesulfonyl-methyl-amino)-4-oxo-4,5-dihydro-3H-pyrrolo[2,3-c]quinoline-1-ethyl carboxylate], for which the IC50 fell in the range of 100 to 1000 nM.

Take `CCOC(=O)c1c[nH]c2c(=O)[nH]c3ccc(S(=O)(=O)N4CCC[C@H]4CN4CCCC4)cc3c12` [Compound 163, (S)-4-Oxo-8-(2-pyrrolidin-1-ylmethyl-pyrrolidine-1-sulfonyl)-4,5-dihydro-3H-pyrrolo[2,3-c]quinoline-1-ethyl carboxylate]: the IC50 fell in the range of 100 to 1000 nM. With `CCOC(=O)c1c[nH]c2c(=O)[nH]c3ccc(S(=O)(=O)NC)cc3c12` [Compound 27, 8-Methylsulfamoyl-4-oxo-4,5-dihydro-3H-pyrrolo[2,3-c]quinoline-1-ethyl carboxylate] the figure was 100 to 1000 nM; with `CCCOC(=O)c1c[nH]c2c(=O)[nH]c3cc(F)c(S(=O)(=O)N(CCO)C(C)C)cc3c12` [Compound 185, 7-Fluoro-8-[(2-hydroxy-ethyl)-isopropyl-sulfamoyl]-4-oxo-4,5-dihydro-3H-pyrrolo[2,3-c]quinoline-1-propyl carboxylate], less than 100 nM. With `CCCOC(=O)c1c[nH]c2c(=O)[nH]c3ccc(S(=O)(=O)N(C)CCNC)cc3c12` [Compound 139, 8-[Methyl-(2-methylamino-ethyl)-sulfamoyl]-4-oxo-4,5-dihydro-3H-pyrrolo[2,3-c]quinoline-1-propyl carboxylate hydrochloride] the figure was less than 100 nM; with `O=C(c1ccccc1)c1c[nH]c2c(=O)[nH]c3ccccc3c12` [Compound 76, 1-Benzoyl-3,5-dihydro-pyrrolo[2,3-c]quinolin-4-one], 1000 to 10000 nM; with `CCOC(=O)c1c[nH]c2c(=O)[nH]c3ccc(-c4ccn(C)n4)cc3c12` [Compound 283, 8-(1-Methyl-1H-pyrazol-3-yl)-4-oxo-4,5-dihydro-3H-pyrrolo[2,3-c]quinoline-1-ethyl carboxylate], 100 to 1000 nM. With `CCOC(=O)c1c[nH]c2c(=O)[nH]c3ccc(-c4ccc(NC(=O)OC(C)(C)C)cc4)cc3c12` [Compound 243, 8-(4-tert-Butoxycarbonylaminophenyl)-4-oxo-4,5-dihydro-3H-pyrrolo[2,3-c]quinoline-1-ethyl carboxylate] the figure was 1000 to 10000 nM.

Take `CCCOC(=O)c1c[nH]c2c(=O)[nH]c3ccc(S(=O)(=O)N(C)C4CCS(=O)(=O)CC4)cc3c12` [Compound 132, 8-[(1,1-Dioxo-hexahydro-1,6-thiopyran-4-yl)-methyl-sulfamoyl]-4-oxo-4,5-dihydro-3H-pyrrolo[2,3-c]quinoline-1-propyl carboxylate]: the IC50 is 1000 to 10000 nM. With `CN(c1ccc(F)cc1)S(=O)(=O)c1ccc2[nH]c(=O)c3[nH]cc(C(=O)O)c3c2c1` [Compound 103, 8-[(4-Fluorophenyl)-methyl-sulfamoyl]-4-oxo-4,5-dihydro-3H-pyrrolo[2,3-c]quinoline-1-carboxylic acid], the IC50 lay in the range of 10000 to 100000 nM.
